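Interpolation was linear, between the two tested concentrations surrounding the appropriate level; five concentrations were tested over 48 hours in 96-well plates. The concentration for 50% growth inhibition is given as GI50.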 The source made the active and inactive calls. Rule as the data show it: active = GI50 up to about 1.1 µM and inactive = higher.
Assays:
Assay in all cases: growth of human tumour cells (NCI), 48 h
SK-MEL-5 = test system: SK-MEL-5
SF-295 = test system: SF-295
HCC 2998 = test system: HCC 2998
M14 = test system: M14
MOLT-4 = test system: MOLT-4
NCI-H23 = test system: NCI-H23
UACC-62 = test system: UACC-62
KM12 = test system: KM12
NCI/ADR-RES = test system: NCI/ADR-RES
SNB-19 = test system: SNB-19
HOP-62 = test system: HOP-62
SNB-75 = test system: SNB-75
COLO 205 = test system: COLO 205
UACC-257 = test system: UACC-257
HOP-92 = test system: HOP-92
EKVX = test system: EKVX
NCI-H522 = test system: NCI-H522
ACHN = test system: ACHN
MCF7 = test system: MCF7
CCRF-CEM = test system: CCRF-CEM

Measured: GI50

O=C(N/N=C/c1ccc2c(c1)CCC2)c1ccccc1O
inactive: SK-MEL-5 33.9 µM | SF-295 16.4 µM | HCC 2998 13.3 µM | M14 30 µM | MOLT-4 36.9 µM | NCI-H23 24.2 µM | UACC-62 22 µM | KM12 20.9 µM | NCI/ADR-RES 24.4 µM | SNB-19 19.8 µM | HOP-62 17 µM | SNB-75 16.8 µM | COLO 205 53.7 µM | UACC-257 28.6 µM | HOP-92 24.5 µM | EKVX 27.1 µM | NCI-H522 21.5 µM | ACHN 18.6 µM | MCF7 16.2 µM | CCRF-CEM 8.71 µM

Cc1cc(C)nc(NS(=O)(=O)c2ccc(NNc3c4ccccc4nc4c(C(=O)Nc5ccc(S(=O)(=O)Nc6ncccn6)cc5)cccc34)cc2)n1
inactive: SK-MEL-5 21.2 µM | SF-295 32.4 µM | HCC 2998 26.7 µM | M14 33.7 µM | MOLT-4 32.5 µM | NCI-H23 23 µM | UACC-62 25.2 µM | KM12 34.5 µM | NCI/ADR-RES > 100 µM | SNB-19 34.6 µM | HOP-62 33.5 µM | SNB-75 37.5 µM | COLO 205 27.1 µM | UACC-257 33.7 µM | HOP-92 27.3 µM | EKVX 19.5 µM | NCI-H522 18.7 µM | ACHN 23.3 µM | MCF7 52.8 µM | CCRF-CEM 22.8 µM

Clc1cc(N/N=C(/c2ccccc2)c2ncccn2)ncn1
inactive: SK-MEL-5 25.8 µM | SF-295 24.6 µM | HCC 2998 70.3 µM | M14 29 µM | MOLT-4 5.87 µM | NCI-H23 21.4 µM | UACC-62 32.2 µM | KM12 43 µM | NCI/ADR-RES 20.1 µM | SNB-19 60.7 µM | HOP-62 26.8 µM | SNB-75 26.1 µM | COLO 205 4.29 µM | UACC-257 20.9 µM | HOP-92 14.7 µM | EKVX 17 µM | NCI-H522 2.56 µM | ACHN 4.78 µM | MCF7 14.8 µM | CCRF-CEM 4.53 µM

Source: ChEMBL document CHEMBL1201862, “PubChem BioAssay data set” (2004)
